Experimental data taken from article PMC5114727, “Biological characterization of chemically diverse compounds targeting the Plasmodium falciparum coenzyme A synthesis pathway” (Parasites & Vectors, 2016).
“And” between values parts separate entries of the source, which are not always exact repeats. Equal values may be shown once. Read-outs that look alike come from different tables or passages of the source.

Columns and labels:
[1] = system: P. falciparum asexual blood stages (PfAS); assay: Chemical rescue with CoA pathway intermediates, asexual stages; format: cell-based, Plasmodium falciparum; conditions: inhibitor at IC80; for Percent rescue ± SEM by pantethine, PfAS: pantethine 125 μM; for Percent rescue ± SEM by pantothenate, PfAS: pantothenate 300 μM; for Percent rescue ± SEM by CoA, PfAS: CoA 0.8 mM; for Percent rescue ± SEM by dephospho CoA, PfAS: dP-CoA 0.8 mM
Description: (§1) Pantothenate is the first substrate of the pathway (Fig. 1) and its addition was intended to rescue the action of possible competitive inhibitors of the first enzyme, PanK. […] It is not known, whether P. falciparum is capable of pantetheine phosphorylation for utilization in CoA synthesis. […] Finally, the rescue ability of dP-CoA, the final substrate of CoA synthesis, was tested. […] Inhibitors competing with dP-CoA for DPCK binding were expected to be displaced, thereby rescuing parasite survival, by dP-CoA supplementation in a concentration dependent manner.
(§2) An imaging based assay was utilised to assess the chemical rescue on asexual stages of P. falciparum as described previously. All the pathway intermediates were purchased from Sigma. CoA and dP-CoA were dissolved in sterile distilled water to obtain a 20 mM stock solution, which was then aliquoted and stored at -20 °C until use. […] Each pathway intermediate was tested on the parasites at a range of concentrations to assess potential toxicity. […] On early stage P. falciparum gametocytes the same concentrations as for CoA were tested for dP-CoA; against asexual blood stage P. falciparum, late stage gametocytes and Trypanosoma b. brucei five dP-CoA concentrations were tested (2 mM, 1.5 mM, 1 mM, 0.75 mM and 0.5 mM).
(§3) The same concentration ranges of the CoA pathway intermediates were supplemented to parasites treated with the experimental compounds. The inhibitors were used at their respective final assay concentration of IC80 (as determined previously in the corresponding P. falciparum development stage or T. b. brucei assay). […] The negative control used in each assay was 0.4% DMSO, whilst the positive control was 2 μM artemisinin for asexual P. falciparum blood stages and 5 μM puromycin for all gametocyte stages and T. b. brucei. The percentage growth of the respective parasites following compound treatment was determined using Microsoft ® Excel 2010, and compared with their controls. All rescue assays were performed as two independent experiments each in duplicate point.

[2] = system: P. falciparum pantothenate kinase (PfPanK); assay: Radiometric pantothenate phosphorylation assay in P. falciparum lysate; format: biochemical, Plasmodium falciparum; conditions: 100 μM single concentration, all compounds (Figure S2a)
Description: A radiometric assay, which allows measurement of the phosphorylation of various substrates by kinases present in P. falciparum lysates [16, 39], was used to test the effect of the chemical compounds of interest at 100 μM concentration on PanK activity.
The ability of the test compounds to inhibit P. falciparum pantothenate kinase (PfPanK) was assessed with a radiometric pantothenate phosphorylation assay as described previously [39]. In short, the phosphorylation of [^14C] pantothenate by P. falciparum lysates was measured in the presence or absence of a single concentration (100 μM, two biological replicates in duplicate technical repeats) of each test compound. […] P. falciparum lysate was prepared from trophozoite stage parasites isolated from their host RBC by treatment with 0.05% (w/v) saponin, and washed (three times) in HEPES-buffered saline (125 mM NaCl, 5 mM KCl, 20 mM D-glucose, 25 mM HEPES, 1 mM MgCl2, pH 7.1). Lysates were prepared in 10 mM potassium phosphate, pH 7.4, the concentration of cell lysates was determined from cell counts with an improved Neubauer hemocytometer, and aliquots of lysate were stored at -20 °C.[^14C] pantothenate, [^14C]

[3] = system: MCF7 cells; assay: Resazurin cytotoxicity assay, MCF7; format: cell-based, human; conditions: highest concentration 40 μM; bound = highest concentration with < 50 % inhibition; read-out: MCF7 cytotoxicity IC50 ± SEM
Source text: (§4) An initial indication of compound selectivity over human cells had previously been obtained through comparison of the compounds’ IC50 values against P. falciparum asexual stages and HEK293 [22]. In the present study, the selectivity investigation was extended to a small panel of human cancer cell lines, namely the estrogen receptor (ER)-positive breast cancer cell line MCF7, the ER-negative MDA-MB-231, as well as the human prostate cancer line, PC-3. Additionally, the cytotoxic effects on mouse embryonic fibroblast cell line 3T3, which serves as the host cell for T. cruzi in our image-based amastigote assay, were investigated.
(§5) Cytotoxicity of the compounds was assessed against a panel of human cancer cell lines, namely the estrogen receptor (ER)-positive breast cancer cell line MCF7, the ER-negative MDA-MB-231 and the prostate cancer line PC-3. All the cell lines were purchased from ATCC and maintained as previously described. Two biological replicates consisting of two technical replicates each were performed to generate concentration response curves (CRC) with a final highest concentration of 40 μM. A resazurin-based assay was utilized to determine cell viability as described earlier. Additionally, the cytotoxic effects on the mouse embryonic fibroblast cell line 3T3 were assessed as part of the Trypanosoma cruzi amastigote image-based assay as outlined in [35].

[4] = system: T. cruzi trypomastigotes; assay: T. cruzi trypomastigote PrestoBlue assay; format: cell-based, Trypanosoma cruzi; conditions: for IC50: highest concentration 40 μM, read-out: T. cruzi trypomastigote IC50 ± SEM
Description: Compound activity against T. cruzi trypomastigotes was assessed in two independent experiments, without technical repeats, at a final highest compound concentration of 40 μM in concentration-response PrestoBlue assay, as previously described.

[5] = system: P. falciparum early stage gametocytes (PfEG, stage I-III); assay: Chemical rescue with CoA pathway intermediates, early stage gametocytes; format: cell-based, Plasmodium falciparum; conditions: for Percent rescue ± SEM by CoA, PfEG: CoA 1.6 mM; for Percent rescue ± SEM by CoA, PfEG / Percent rescue ± SEM by pantethine, PfEG / Percent rescue ± SEM by pantothenate, PfEG: inhibitor at IC80; for Percent rescue ± SEM by pantethine, PfEG: pantethine 10 mM; for Percent rescue ± SEM by pantothenate, PfEG: pantothenate 625 μM
Description: as §1, §2
as §3, with “compounds.” for “compounds. The inhibitors were used at their respective final assay concentration of IC80 (as determined previously in the corresponding P. falciparum development stage or T. b. brucei assay).”

[6] = system: 3T3 cells; assay: 3T3 host cell cytotoxicity (part of T. cruzi amastigote image-based assay); set-up: species or system mouse; conditions: bound = highest concentration with < 50 % inhibition; read-out: 3T3 cytotoxicity IC50 ± SEM
Source text: as §4, §5

[7] = system: HEK293 cells; conditions: as previously reported; read-out: HEK293 cytotoxicity IC50 ± SEM; cited from earlier work
[8] = biological target: early stage gametocytes (stage I to IIb/III) of P. falciparum line NF54^Pfs16; assay: Gametocyte luciferase assay, early stage; format: cell-based, Plasmodium falciparum
Source text: To investigate a potential role of CoA biosynthesis for host to vector transmission of the malaria parasite, we investigated the activity of our compounds on P. falciparum gametocytes, the sexual stages of P. falciparum, essential for malaria transmission. […] Parasite stage-specificity and gametocytocidal activity of the compounds was therefore investigated, utilizing a luciferase-based approach on early stage (development from stage I to IIb/III [30]) and late stage (IV to V [51]) gametocytes.
Induction of P. falciparum gametocyte differentiation and gametocyte culturing were performed as previously described. Compound activity against early stage gametocytes (covering the development from stage I to IIb/III) and late stage gametocytes (stage IV to V) of the recombinant P. falciparum line NF54^Pfs16 was assessed in concentration-response assays, in two experimental replicates consisting of two technical repeats each, at a highest concentration of 40 μM, as described earlier.

[9] = system: T. b. brucei trypomastigotes; assay: Chemical rescue with CoA pathway intermediates, T. b. brucei; format: cell-based, Trypanosoma brucei brucei; conditions: inhibitor at IC80; for Percent rescue ± SEM by CoA, Tbb: CoA 1.0 mM; for Percent rescue ± SEM by pantethine, Tbb: pantethine 2.44 μM; for Percent rescue ± SEM by pantothenate, Tbb: pantothenate 1.25 mM
Description: as §1
An imaging based assay was utilised to assess the chemical rescue on asexual stages of P. falciparum as described previously. All the pathway intermediates were purchased from Sigma. […]
as §3

[10] = read-out: Early stage gametocyte IC50
[11] = highest concentration 40 μM, read-out: Early stage gametocyte IC50 ± SEM

Row | Compound | Percent rescue ± SEM by pantethine, PfAS [1] | Percent rescue ± SEM by pantothenate, PfAS [1] | IC50 [3] | Percent rescue ± SEM by CoA, PfEG [5] | Percent rescue ± SEM by pantethine, PfEG [5] | Percent rescue ± SEM by pantothenate, PfEG [5] | IC50 [6] | IC50 [7] | IC50 [8, 10] | Percent rescue ± SEM by CoA, PfAS [1] | Percent rescue ± SEM by dephospho CoA, PfAS [1] | Percent rescue ± SEM by CoA, Tbb [9] | Percent rescue ± SEM by pantethine, Tbb [9] | Percent rescue ± SEM by pantothenate, Tbb [9] | IC50 [4] | IC50 [8, 11] | other results
1 | Cc1csc(Sc2ncnc3sccc23)n1 [Amb180780] | 76.2 ± 7.7% and 76 ± 8% | No and not by pantothenate | > 40000 nM | 111.3 ± 3.2% and ~100% | 94.2 ± 1.8% and ~100% | No | > 40000 nM | ~40000 nM | 60 nM |  |  |  |  |  |  |  | PanK inhibition [2]: did not reveal inhibition of PanK; T. cruzi trypomastigote percent inhibition at the highest concentration tested ([4]; 40 µM, given if an IC50 could not be calculated): 100%
2 | CC(=O)c1ccc2c3c(onc13)-c1ccccc1C2=O [Amb3377585] | No | No | 9100 ± 620 nM |  | No | No |  | 2750 ± 180 nM |  | 89.3 ± 2.6% | 38.7 ± 4.7% | 95.0 ± 4.2% | No | 34.2 ± 1.3% and 34 ± 1% | 740 nM and 744 nM | 250 ± 10 nM | Percent rescue ± SEM by dephospho CoA, Tbb ([9]; dP-CoA 1.6 mM): 100.4 ± 1.4%
3 | CC(=O)C1=C(c2ccccc2)C(=O)c2ccccc2C1=O [Amb4317088] | No | No | 4600 ± 160 nM |  |  |  | 8600 ± 960 nM | 2330 ± 120 nM |  | 84.5 ± 7.7% | 77.6 ± 5.5% | 85.0 ± 6.9% | No | No | 390 nM and 392 nM | 2880 ± 180 nM | 
4 | CC1=CC(=O)C(C(C)C)=C/C1=N/OS(=O)(=O)c1ccccc1 [STK 740987] | No | No | > 40000 nM | 24.1 ±0.7% and 24 ± 1% | No and not rescued by the other intermediates | No and not rescued by the other intermediates | > 20000 nM | > 40000 nM | 430 nM | 103.9 ± 3.4% | 88.9 ± 6.7% | 69.6 ± 10.6% | No | No | 680 nM and 682 nM |  | activity on early stage gametocytes at previously determined IC80 value ([5]; compound alone in rescue experiment): > 95%; Percent rescue by CoA, PfEG, at the compound's IC50 ([5]; inhibitor at IC50): 61.5 ± 1.0% and 62 ± 1%; Percent rescue by dephospho CoA, PfEG, at the compound's IC50 ([5]; inhibitor at IC50): 46.2 ± 2.4% and 46 ± 2%; Rescue by pantethine, PfEG, at the compound's IC50 (in words) ([5]; inhibitor at IC50): unaffected; Rescue by pantothenate, PfEG, at the compound's IC50 (in words) ([5]; inhibitor at IC50): unaffected
